The values that follow come from patent US20240252677A1, “ONE-COMPONENT DELIVERY SYSTEM FOR NUCLEIC ACIDS” (The Trustees of the University of Pennsylvania, priority 2021, published 2024).

One data set concerns BALB/c mice. The experiment in a line: In vivo mRNA delivery in mice with DNPs, whole-body bioluminescence imaging (IVIS). The note with it: for Organs with luminescence / Total flux (p/s): mice; for Total flux (p/s): IVIS imaging 4 h after Luc-mRNA-IAJD injection. The protocol: (§1) The exposure time was 1 min.
Luminescence characterization for in vivo transfection experiments employed bioluminescence imaging with an IVIS Spectrum imaging system (PerkinElmer, Waltham, MA). Mice were anesthetized with 3% of isoflurane (Piramal Healthcare Limited) and intraperitoneally (i.p.) administered with D-luciferin (Regis Technologies) at a dose of 150 mg/kg of body weight. Ten minutes post administration of D-luciferin, mice were placed on the imaging platform while being maintained on isoflurane via a nose cone and imaged using an exposure time of 60 seconds. […] To quantify luminescent flux, an oval ROI was placed over each organ of interest and analyzed.
(§2) Tissue luminescence signal was measured on the IVIS imaging system using an exposure time of 60 seconds using medium binning (binning=8) to ensure that the signal obtained was within operative detection range. […] Bioluminescence imaging was performed as described above.
Luminescence Characterization for In Vivo Transfection Experiments: bioluminescence imaging was performed with an IVIS Spectrum imaging system (PerkinElmer, Waltham, MA).

The next data set concerns HEK293T cells. The experiment in a line: In vitro Luc-mRNA transfection, luciferase luminescence expression in HEK293T cells. The data set is classed as cell-based, human. More on the design: unit not given here. As for the experimental part: In Vitro Transfection Activity of DNPs in Human Embrionic Kidney (HEK) 293T Cells: HEK293T cells were seeded into 96-well plates (20,000 cells/well/200 μL) and cultured for 24 h at 37° C. in 5% CO2 complete cell culture media. Screening experiments were performed with nonoptimized DNPs containing naked nucleoside-modified mRNA (Karikó, et al., Immunity 2005, 23, 165-175; Pardi, et al., Methods Mol. Biol. 2013, 969, 29-42), of molar mass 664,341 encoding firefly luciferase (mRNA-Luc). A constant concentration of mRNA-Luc of 125 ng/well was used. The transIT (TransIT-mRNA transfection Kit from Mirus Bio) and MC3-based LNPs (MC3: DLin-MC3-DMA, which is the FDA approved LNP for mRNA delivery) were used as positive controls for cell transfection at a concentration of mRNA-Luc of 125 ng/well, identical to that of the tested DNPs. Subsequently cells were cultured for 24 h, the medium was aspirated under reduced pressure by a glass pipette and cells were lysed with 30 μL/well of cell culture lysis reagent (Promega). The luminescence intensity corresponding to the luciferase protein expressed was characterized and analyzed.
In vitro mRNA Delivery: Human embryonic kidney (HEK) 293T cells (American Type Culture Collection) were cultured in Dulbecco's modified Eagle's medium (DMEM) supplemented with 10% inactivated fetal bovine serum (FBS) (Gemini Bio-Products), 2 mM L-glutamine and 100 U/mL penicillin/streptomycin (Life Technologies) (complete medium). For in vitro screening experiments, HEK293T cells were seeded into 96-well plates (20,000 cells/well/200 μL) and cultured for 24 h in at 37° C. and 5% CO2 in complete media. Cell were transfected with IAJDs with encapsulated naked nucleoside-modified mRNA encoding firefly luciferase (mRNA-Luc) with fixed concentration of mRNA-Luc, 125 ng per well. The transIT (TransIT®-mRNA Transfection Kit, Mirus Bio) was used as a positive control for cell transfection, accordingly per manufacturer protocol and added to cells at the concentration of mRNA-Luc, 125 ng per well, the same as for tested particles. Cells were further cultured for 24 h, then medium was aspirated, and cells were lysed with 30 μL/well of cell culture lysis reagent (Promega). For the characterization of luminescence intensity, 2.5 μL of the lysed cells was mixed with 10 μL of luciferase assay substrate and luminescence was analyzed using a MiniLumat LB 9506 luminometer (Berthold/EG&G; Wallac).
Luminescence characterization for in vitro transfection experiments was performed by determining the luminescence intensity for in vitro Luc-mRNA transfection experiments using a MiniLumat LB 9506 luminometer (Berthold/EG&G; Wallac).
For in vitro Luc-mRNA transfection screening experiments, human embryonic kidney 293 cells (HEK 293) were seeded into 96-well plates (20,000 cells/well/200 μL) and cultured for 18-20 hours at 37° C., 5% CO2 in complete Dulbecco's modified Eagle's medium (DMEM) supplemented with 2 mM L-glutamine (Life Technologies), 100 U/mL penicillin/streptomycin (Invitrogen) and 10% fetal bovine serum (FBS, Gemini Bio-Products). Cells were transfected with DNPs with encapsulated naked nucleoside-modified mRNA encoding firefly luciferase (Luc-mRNA) at constant concentration of Luc-mRNA, 125 ng per well. Luc-mRNA complexed with TransIT (TransIT®-mRNA Transfection Kit, Mirus Bio) or encapsulated in FDA approved MC3-based LNPs were used as positive controls for cell transfection, at the concentration of Luc-mRNA of 125 ng per well, the same as for tested DNPs. After transfection cells were further cultured at 37° C., 5% CO2 for 18-20 hours, then medium was aspirated and cells were lysed with luciferase cell culture lysis reagent (30 μL/well) (Promega, Madison, WI). […]

A further data set relates to lung. Put plainly: In vivo mRNA delivery, IVIS imaging of organs: lung. The arrangement: species or system mice; key to Organs with luminescence: lung: strong: Strong meant the luminescence intensity in that organ was relatively high, compared to other organs; weak: Weak meant the luminescence intensity in that organ was relatively low, compared to other organs. The note with it: for Organs with luminescence: lung (weak/strong): Table 14; for Organs with luminescence: lung: Table 17, IVIS, 4-6 h after injection, intensity relative to other organs. The protocol: as §1, §2
Tissue luminescence signal was measured on the IVIS imaging system using a certain exposure time (60, 30 or 15 seconds) and medium binning (binning=8) to ensure that the signal obtained was within operative detection range.

The nature of data set [1]: Stability of DNPs by DLS after storage at 5° C. The data set is classed as physicochemical. More on the design: key: Excellent: the original sizes and distribution types remained almost the same after storage; Good: the original sizes and distribution types changed slightly (size difference was less than 100 nm) or the original size remained almost the same but the DLS curve showed more size distributions after storage. The note with it: after 75 days at 5° C. The protocol:
The stability of the DNPs as assayed by DLS. All the samples are prepared in acetate buffer. The stabilities of the constructs were ranked: Excellent (in bold)—the original sizes and distribution remains almost the same after storage; Good—the original relatively big sizes became smaller or broad size distribution became narrower; Not stable—the original relatively big sizes or broad size distribution remained almost the similar level, or the original relatively small sizes became bigger or narrow size distribution became broader.

Setting [2] is: HEK293T cells, Luc-mRNA 125 ng/well, n=3.
The mark [3] stands for this setting: Table 13, IVIS imaging 5 h after injection.
[4] abbreviates: Table 13, IVIS imaging 6 h after injection.

As to “3,5-Bis(dodecyloxy)benzyl 3-(4-methylpiperazin-1-yl)propanoate [IAJD 84]”, in the data set on BALB/c mice (4 h from injection, CIAJD 4.0 mg/mL, CLuc-mRNA 0.1 mg/mL, acetate buffer pH 5.2), the Organs with luminescence entry is “Lung, spleen”. The Luminescence in the data set on HEK293T cells (Acetate buffer 10 mM pH 4.0, CIAJD 4 mg/mL, CLuc-mRNA 0.05 mg/mL, HEK293T, 125 ng/well) is listed as 3,876; in the data set on HEK293T cells (Acetate buffer 10 mM pH 5.2, CIAJD 4 mg/mL, CLuc-mRNA 0.10 mg/mL, HEK293T, 125 ng/well) it was 18,268; in the data set on HEK293T cells (Citrate buffer 10 mM pH 3.0, CIAJD 4 mg/mL, CLuc-mRNA 0.05 mg/mL, HEK293T, 125 ng/well), 819.

`CCCCCCCCCCCCOc1cc(COC(=O)CCCN2CCCCC2)cc(OCCCCCCCCCCCC)c1` [IAJD 65, 3,5-Bis(dodecyloxy)benzyl 4-(piperidin-1-yl)butanoate]: the “Total flux (p/s)” value in the data set on BALB/c mice (Table 13) and with BALB/c mice (Table 14) was 0 p/s in each case. For the same molecule, in the data set with HEK293T cells (setting [2]), the Luminescence is listed as 18.

Consider `CCCCCCCCCCCCOc1ccc(COC(=O)CCCN2CCN(C)CC2)cc1OCCCCCCCCCCCC` [IAJD 78, 3,4-Bis(dodecyloxy)benzyl 4-(4-methylpiperazin-1-yl)butanoate], for which, in the data set with BALB/c mice (setting [3]), the Organs with luminescence entry is recorded as “Lung, spleen”. The Luminescence in the data set on HEK293T cells (setting [2]) is 8,688. The “Organs with luminescence: lung (weak/strong)” value (from here on “Organs … (weak/strong)”) in the data set with lung (imaging 5 h after injection) is “Lung (strong),”.

For the molecule `CCCCCCCCCCCCCCCCCCOc1cc(COC(=O)CCCN2CCN(C)CC2)cc(OCCCCCCCCCCC)c1` [IAJD 81, 3-(Octadecyloxy)-5-(undecyloxy)benzyl 4-(4-methylpiperazin-1-yl)butanoate], the “In vivo activity (total flux, p/s)” value in the data set with BALB/c mice (Table 19, nonsymmetric IAJDs) is reported as 2.32 × 10^7 p/s; in the data set on BALB/c mice (Table 20, nonsymmetric IAJDs and MC3-Luc-mRNA) it was 2.32 × 10^7 p/s. In addition, the Luminescence in the data set on HEK293T cells (setting [2]) is reported as 206,161. In the data set with lung (imaging 6 h after injection), the “Organs … (weak/strong)” value is on record as “Lung (weak),”. The “Organs with luminescence: lung” value in the data set on lung (mice) is reported as “Lung (weak),”.

Turning to `CCCCCCCCCCCCOCC(COCCCCCCCCCCCC)(COCCCCCCCCCCCC)COC(=O)CCCN1CCN(C)CC1` [IAJD 82, 3-(Dodecyloxy)-2,2-bis((dodecyloxy)methyl)propyl 4-(4-methylpiperazin-1-yl)butanoate], the Organs with luminescence result with BALB/c mice (setting [3]) is recorded as “spleen”. Also, the Luminescence in the data set on HEK293T cells (setting [2]) was found to be 17.

Regarding `CCCCCCCCCCCCCCCCOc1cc(COC(=O)CCCN2CCN(C)CC2)cc(OCCCCCCCCCCC)c1` [IAJD 86, 3-(Hexadecyloxy)-5-(undecyloxy)benzyl 4-(4-methylpiperazin-1-yl)butanoate], the “In vivo activity (total flux, p/s)” value in the data set with BALB/c mice (Table 19, nonsymmetric IAJDs) is 4.73 × 10^7 p/s. The Luminescence with HEK293T cells (setting [2]) is 47,066. Besides, the “Organs … (weak/strong)” value in the data set on lung (imaging 5 h after injection) is “Lung (weak),”. Besides, the “Organs with luminescence: lung” value in the data set with lung (mice) was “Lung (weak),”.

With `CCCCC(CC)COc1ccc(COC(=O)CCCN2CCN(C)CC2)cc1OCC(CC)CCCC` (stereo not shown) [IAJD 103, 3,4-Bis((2-ethylhexyl)oxy)benzyl 4-(4-methylpiperazin-1-yl)butanoate], the Organs with luminescence entry in the data set on BALB/c mice (setting [4]) is “Lung, spleen”. The Luminescence with HEK293T cells (setting [2]) worked out at 19. In addition, the “Organs … (weak/strong)” value with lung (imaging 6 h after injection) is given as “Lung (strong),”.

Take `CCCCCCCCCCCCCCOc1cc(COC(=O)CCCN2CCN(C)CC2)cc(OCCCCCCCCCCC)c1` [IAJD 105, 3-(Tetradecyloxy)-5-(undecyloxy)benzyl 4-(4-methylpiperazin-1-yl)butanoate]: the “In vivo activity (total flux, p/s)” value in the data set on BALB/c mice (Table 19, nonsymmetric IAJDs) is reported as 4.74 × 10^7 p/s. In addition, in the data set with HEK293T cells (setting [2]), the Luminescence was found to be 85. Also, the “Organs … (weak/strong)” value with lung (imaging 6 h after injection) is “Lung (weak),”. The “Organs with luminescence: lung” value in the data set with lung (mice) was “Lung (weak),”.

As for `CCCCCCCCCCCCCCCCOc1cc(COC(=O)CCCN2CCN(C)CC2)cc(OCCCCCCCCCCCC)c1` [IAJD 106, 3-(Dodecyloxy)-5-(hexadecyloxy)benzyl 4-(4-methylpiperazin-1-yl)butanoate], the “In vivo activity (total flux, p/s)” value in the data set on BALB/c mice (Table 19, nonsymmetric IAJDs) is 3.48 × 10^7 p/s. Also, the Luminescence in the data set with HEK293T cells (setting [2]) is listed as 309. Moreover, the “Organs … (weak/strong)” value in the data set on lung (imaging 6 h after injection) is recorded as “Lung (weak),”. Also, in the data set on lung (mice), the “Organs with luminescence: lung” value is on record as “Lung (weak),”.

As for `CCCCCCCCCCCCCCCCCCOc1cc(COC(=O)CCCN2CCN(C)CC2)cc(OCCCCCCCCCCCC)c1` [IAJD 107, 3-(Dodecyloxy)-5-(octadecyloxy)benzyl 4-(4-methylpiperazin-1-yl)butanoate], the “In vivo activity (total flux, p/s)” value with BALB/c mice (Table 19, nonsymmetric IAJDs) is recorded as 2.19 × 10^7 p/s. Further, in the data set on HEK293T cells (setting [2]), the Luminescence is on record as 93,745. For the same molecule, in the data set on lung (imaging 6 h after injection), the “Organs … (weak/strong)” value is “Lung (weak),”. In addition, the “Organs with luminescence: lung” value with lung (mice) is “Lung (weak),”.

Consider `CCCCCCCCCCCCCCOc1cc(CNC(=O)CCCN2CCN(C)CC2)cc(OCCCCCCCCCCCCCC)c1` [IAJD 108, N-(3,5-bis(tetradecyloxy)benzyl)-4-(4-methylpiperazin-1-yl)butanamide], for which the Organs with luminescence result in the data set with BALB/c mice (setting [4]) is listed as “Lung, spleen”. For the same molecule, in the data set with HEK293T cells (setting [2]), the Luminescence is recorded as 136,424. Moreover, the “Organs … (weak/strong)” value with lung (imaging 6 h after injection) is “Lung (strong),”.

`CCCCCCCCCCCCOc1cc(COC(=O)c2cc(OCCOCCOCCCC(=O)CCCN3CCCCC3)c(OCCOCCOCCOCc3ccccc3)c(OCCOCCOCCOC(=O)CCCN3CCCCC3)c2)cc(OCCCCCCCCCCCC)c1` [IAJD 110]: in the data set on HEK293T cells (Table 16, HEK 293T cells, 125 ng/well, n=3), the Luminescence came to 47. Moreover, the “Organs with luminescence: lung” value in the data set with lung (mice) is reported as “Lung (strong)”. For the same molecule, the “activity in lung (in words)” value in the data set with lung (mice, Luc-mRNA DNPs) is given as “very high activity to lung”. Besides, in data set [1], the Ranking of stability result is recorded as “Excellent”.
